From patent US20110166173A1, “3,5-DISUBSTUTUTED 1H-PYRROLO [2,3-B] PYRIDINES AS JNK INHIBITORS” (Eisai Co., Ltd., priority 2004, published 2011)

molecular target: JNK3 (Homo sapiens, UniProt P53779); test: JNK3 SPA assay (phosphorylation of GST-c-Jun); format: biochemical; details: Scintillation proximity assay, GST-c-Jun substrate, 3.33 μM ATP, 30 minutes at room temperature
Method: JNK1, JNK2, JNK3—SPA Assay • 1. Compound is dissolved in DMSO to a convenient concentration and this is diluted in 10% DMSO to a five times concentrate of the desired starting concentration (frequently 1:100). • 2. 10 μl of 500 mM EDTA is added to alternative wells of the Opti-plate row, which will receive kinase reaction plus DMSO. This creates the negative control. • 3. For the JNK2 and JNK3 assay, compounds are prepared in six 2-fold dilutions with water and each concentration is tested in duplicate. For the JNK1 assay compounds are prepared in four 5-fold dilutions with water which are tested in triplicate. Controls are treated identically. • 4. 20 μl per well of each compound concentration is transferred to an Opti-plate, in duplicate. • 5. 30 μl (JNK2/3 SPA) or 50 μl (JNK1 SPA) of substrate solution (25 mM HEPES pH 7.5, 10 mM magnesium acetate with 3.33 μM ATP (JNK2/3) or 2 μM ATP (JNK1), approximately 7.5 kBq [γ-^33P] ATP, GST-c-Jun, in water) is added to each well. • 6. 50 μl (JNK2/3 SPA) or 30 μl (JNK1 SPA) of kinase solution (JNK in 25 mM HEPES pH 7.5, 10 mM Mg Acetate) is added to each well.
• 7. The plate is incubated for 30 minutes at room temperature. • 8. 100 μl of bead/stop solution is added to each well (5 mg/ml glutathione-PVT-SPA beads, 40 mM ATP in PBS). • 9. Plates are sealed and incubated for 30 minutes at room temperature, centrifuged for 10 minutes at 2500 g and counted. • 10. The IC50 values are calculated as the concentration of the compound being tested at which the phosphorylation of c-Jun is decreased to 50% of the control value.

Chain of JNK3 (P53779 whole entry): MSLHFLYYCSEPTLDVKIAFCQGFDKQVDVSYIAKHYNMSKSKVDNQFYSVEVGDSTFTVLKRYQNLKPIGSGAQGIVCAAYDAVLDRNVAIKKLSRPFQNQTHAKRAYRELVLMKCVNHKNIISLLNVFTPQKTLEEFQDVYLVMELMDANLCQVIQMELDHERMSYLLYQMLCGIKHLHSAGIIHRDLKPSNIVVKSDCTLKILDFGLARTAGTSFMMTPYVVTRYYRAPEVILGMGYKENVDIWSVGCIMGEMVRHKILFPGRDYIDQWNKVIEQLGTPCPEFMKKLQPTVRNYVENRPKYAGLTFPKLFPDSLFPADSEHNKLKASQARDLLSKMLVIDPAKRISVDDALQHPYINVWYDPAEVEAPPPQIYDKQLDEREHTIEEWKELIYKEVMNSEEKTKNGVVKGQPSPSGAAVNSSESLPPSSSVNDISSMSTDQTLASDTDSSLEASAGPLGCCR

| SMILES | IC50 [nM] |
| --- | --- |
| O=C(c1cnc2[nH]cc(-c3ccoc3)c2c1)N1CCCC1 | < 500 |
| O=C(c1cnc2[nH]cc(-c3ccoc3)c2c1)N1CCc2ccccc2C1 | < 500 |
| O=C(Nc1ccc2[nH]ccc2c1)c1cnc2[nH]cc(-c3ccoc3)c2c1 | < 1000 |
| CN(C)c1ccc(C(=O)c2cnc3[nH]cc(-c4cnn(C)c4)c3c2)cc1 | < 500 |
| O=C(NCCc1c[nH]c2ccccc12)c1cnc2[nH]cc(-c3ccoc3)c2c1 | < 500 |
